According to patent US20220135591A1, “HETEROCYCLIC COMPOUNDS AS INHIBITORS OF MONOACYLGLYCEROL LIPASE (MAGL)” (Hoffmann-La Roche Inc., priority 2019, published 2022):

Molecular target: T1, MAGL (Homo sapiens, UniProt Q99685)
T1 sequence (Q99685 1-303): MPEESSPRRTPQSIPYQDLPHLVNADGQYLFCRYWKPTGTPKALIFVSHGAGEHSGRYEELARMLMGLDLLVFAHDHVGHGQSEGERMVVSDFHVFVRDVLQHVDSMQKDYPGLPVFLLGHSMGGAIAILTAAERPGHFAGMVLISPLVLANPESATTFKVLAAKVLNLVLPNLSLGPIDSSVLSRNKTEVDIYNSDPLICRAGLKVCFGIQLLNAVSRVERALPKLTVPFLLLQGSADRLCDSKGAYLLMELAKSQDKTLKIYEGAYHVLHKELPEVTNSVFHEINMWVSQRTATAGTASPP
Assay: 2-AG assay: MAGL inhibitory activity by hydrolysis of 2-arachidonoylglycerol to arachidonic acid, mass spectrometry
Format: biochemical
Conditions: 2-AG assay (values marked [b])
Method: Alternatively, compounds were profiled for MAGL inhibitory activity by determining the enzymatic activity by following the hydrolysis of the natural substrate 2-arachidonoylglycerol (2-AG) resulting in arachidonic acid, which can be followed by mass spectrometry. This assay is hereinafter abbreviated “2-AG assay”.
The 2-AG assay was carried out in 384 well assay plates (PP, Greiner Cat #784201) in a total volume of 20 μL. Compound dilutions were made in 100% DMSO (VWR Chemicals 23500.297) in a polypropylene plate in 3-fold dilution steps to give a final concentration range in the assay from 12.5 μM to […]. 0.25 μL compound dilutions (100% DMSO) were added to 9 μL MAGL in assay buffer (50 mM TRIS (GIBCO, 15567-027), 1 mM EDTA (Fluka, 03690-100 mL), 0.01% (v/v) Tween. After shaking, the plate was incubated for 15 min at RT. To start the reaction, 10 μL 2-arachidonoylglycerol in assay buffer was added. The final concentrations in the assay was […] and 8 μM 2-arachidonoylglyerol. After shaking and 30 min incubation at RT, the reaction was quenched by the addition of 40 μL of ACN containing 4 μM of d8-arachidonic acid. The amount of arachidonic acid was traced by an online SPE system (Agilent Rapidfire) coupled to a triple quadrupole mass spectrometer (Agilent 6460). A C18 SPE cartridge (G9205A) was used in an ACN/water liquid setup. The mass spectrometer was operated in negative electrospray mode following the mass transitions 303.1→259.1 for arachidonic acid and 311.1→267.0 for d8-arachidonic acid. The activity of the compounds was calculated based on the ratio of intensities [arachidonic acid/d8-arachidonic acid].

`Cc1ccc2oc(N3CCN(C(=O)c4ccc(-c5ncn(C(C)(C)C)n5)c(C(F)(F)F)c4)CC3)nc2n1` [Example 111, [4-(1-tert-butyl-1,2,4-triazol-3-yl)-3-(trifluoromethyl)phenyl]-[4-(5-methyl-[1,3]oxazolo[4,5-b]pyridin-2-yl)piperazin-1-yl]methanone] showed an IC50 of 28 nM.

Work on `CC(C)(C)n1cnc(-c2ccc(C(=O)N3CCN(c4nc5nc(Cl)ccc5o4)CC3)cc2C(F)(F)F)n1` [Example 112, [4-(1-tert-butyl-1,2,4-triazol-3-yl)-3-(trifluoromethyl)phenyl]-[4-(5-chloro-[1,3]oxazolo[4,5-b]pyridin-2-yl)piperazin-1-yl]methanone] yielded an IC50 of 12 nM.

Compound `Cc1ccc2oc(N3CCN(C(=O)c4ccc(-c5cn(CC6COC6)nn5)cc4)CC3)nc2n1` [Example 113, [4-(5-methyl-[1,3]oxazolo[4,5-b]pyridin-2-yl)piperazin-1-yl]-[4-[1-(oxetan-3-ylmethyl)triazol-4-yl]phenyl]methanone] has an IC50 of 4270 nM.

Compound `O=C(c1ccc(-c2cn(CC3COC3)nn2)cc1)N1CCN(c2nc3nc(Cl)ccc3o2)CC1` [Example 114, [4-(5-chloro-[1,3]oxazolo[4,5-b]pyridin-2-yl)piperazin-1-yl]-[4-[1-(oxetan-3-ylmethyl)triazol-4-yl]phenyl]methanone] has an IC50 of 5550 nM.

`CC(C)(C)c1nnc(-c2ccc(C(=O)N3CCN(c4nc5nc(Cl)ccc5o4)CC3)cc2Cl)o1` [Example 115, (4-(5-(tert-butyl)-1,3,4-oxadiazol-2-yl)-3-chlorophenyl)(4-(5-chlorooxazolo[4,5-b]pyridin-2-yl)piperazin-1-yl)methanone] gave an IC50 of 8 nM.

`Cc1ccc2oc(N3CCN(C(=O)c4ccc(-c5nnc(C(C)(C)C)o5)c(Cl)c4)CC3)nc2n1` [Example 117, (4-(5-(tert-butyl)-1,3,4-oxadiazol-2-yl)-3-chlorophenyl)(4-(5-methyloxazolo[4,5-b]pyridin-2-yl)piperazin-1-yl)methanone] was tested, and the IC50 was 34 nM.

`Cc1ccc2oc(N3CCN(C(=O)c4cc(O)c(-c5nnc(C(C)(C)C)o5)c(F)c4)CC3)nc2n1` [Example 118, (4-(5-(tert-butyl)-1,3,4-oxadiazol-2-yl)-3-fluoro-5-hydroxyphenyl)(4-(5-methyloxazolo[4,5-b]pyridin-2-yl)piperazin-1-yl)methanone] gave an IC50 of 368 nM.

`Cn1nc(C(C)(C)C)nc1-c1ccc(C(=O)N2CCN(c3nc4nc(Cl)ccc4o3)CC2)cc1` [Example 119, [4-(5-tert-butyl-2-methyl-1,2,4-triazol-3-yl)phenyl]-[4-(5-chlorooxazolo[4,5-b]pyridin-2-yl)piperazin-1-yl]methanone] gave an IC50 of 140 nM.

`Cc1cc(C(=O)N2CCN(c3nc4nc(Cl)ccc4o3)CC2)cnc1-n1cc(C(C)(C)C)cn1` [Example 120, [6-(4-tert-butylpyrazol-1-yl)-5-methylpyridin-3-yl]-[4-(5-chloro-[1,3]oxazolo[4,5-b]pyridin-2-yl)piperazin-1-yl]methanone] gave an IC50 of 4 nM.

For `Cc1ccc2oc(N3CCN(C(=O)c4ccc(-c5nnc(C(C)(C)C)o5)c(C(F)(F)F)c4)CC3)nc2n1` [Example 121, [4-(5-tert-butyl-1,3,4-oxadiazol-2-yl)-3-(trifluoromethyl)phenyl]-[4-(5-methyloxazolo[4,5-b]pyridin-2-yl)piperazin-1-yl]methanone], the IC50 was 13 nM.

`CC(C)(C)c1nnc(-c2ccc(C(=O)N3CCN(c4nc5nc(Cl)ccc5o4)CC3)cc2C(F)(F)F)o1` [Example 122, [4-(5-tert-butyl-1,3,4-oxadiazol-2-yl)-3-(trifluoromethyl)phenyl]-[4-(5-chlorooxazolo[4,5-b]pyridin-2-yl)piperazin-1-yl]methanone] showed an IC50 of 3 nM.

`COc1cc(C(=O)N2CCN(c3nc4nc(C)ccc4o3)CC2)ccc1-c1ncn(C(C)(C)C)n1` [Example 123, (4-(1-(tert-butyl)-1H-1,2,4-triazol-3-yl)-3-methoxyphenyl)(4-(5-methyloxazolo[4,5-b]pyridin-2-yl)piperazin-1-yl)methanone] showed an IC50 of 174 nM.

Work on `COc1cc(C(=O)N2CCN(c3nc4nc(Cl)ccc4o3)CC2)ccc1-c1ncn(C(C)(C)C)n1` [Example 124, (4-(1-(tert-butyl)-1H-1,2,4-triazol-3-yl)-3-methoxyphenyl)(4-(5-chlorooxazolo[4,5-b]pyridin-2-yl)piperazin-1-yl)methanone] yielded an IC50 of 81 nM.

For `O=C(c1ccc(-c2cn(CC3(F)CC3)nn2)cc1)N1CCN(c2nc3nc(Cl)ccc3o2)CC1` [Example 125, (4-(5-chlorooxazolo[4,5-b]pyridin-2-yl)piperazin-1-yl)(4-(1-((1-fluorocyclopropyl)methyl)-1H-1,2,3-triazol-4-yl)phenyl)methanone], the IC50 was 121 nM.

Work on `Cc1ccc2oc(N3CCN(C(=O)c4ccc(-c5cn(CC6(F)CC6)nn5)cc4)CC3)nc2n1` [Example 126, (4-(1-((1-fluorocyclopropyl)methyl)-1H-1,2,3-triazol-4-yl)phenyl)(4-(5-methyloxazolo[4,5-b]pyridin-2-yl)piperazin-1-yl)methanone] yielded an IC50 of 472 nM.

Compound `Cc1ccc2oc(N3CCN(C(=O)c4ccc(-c5nc(C(C)(C)C)nn5C)cc4)CC3)nc2n1` [Example 127, [4-(5-tert-butyl-2-methyl-1,2,4-triazol-3-yl)phenyl]-[4-(5-methyloxazolo[4,5-b]pyridin-2-yl)piperazin-1-yl]methanone] has an IC50 of 228 nM.

Work on `Cc1ccc2oc(N3CCN(C(=O)c4cnc(-n5cnc(C(C)(C)C)n5)c(C)c4)CC3)nc2n1` [Example 128, [6-(3-tert-butyl-1,2,4-triazol-1-yl)-5-methylpyridin-3-yl]-[4-(5-methyl-[1,3]oxazolo[4,5-b]pyridin-2-yl)piperazin-1-yl]methanone] yielded an IC50 of 107 nM.

For `Cc1cc(C(=O)N2CCN(c3nc4nc(Cl)ccc4o3)CC2)cnc1-n1cnc(C(C)(C)C)n1` [Example 129, [6-(3-tert-butyl-1,2,4-triazol-1-yl)-5-methylpyridin-3-yl]-[4-(5-chloro-[1,3]oxazolo[4,5-b]pyridin-2-yl)piperazin-1-yl]methanone], the IC50 was 52 nM.

Compound `Cc1ccc2oc(N3CCN(C(=O)c4cnc(-n5cc(C(C)(C)C)cn5)c(C)c4)CC3)nc2n1` [Example 130, [6-(4-tert-butylpyrazol-1-yl)-5-methylpyridin-3-yl]-[4-(5-methyl-[1,3]oxazolo[4,5-b]pyridin-2-yl)piperazin-1-yl]methanone] has an IC50 of 8 nM.

Work on `CC(C)(C#N)Cn1cc(-c2ccc(C(=O)N3CCN(c4nc5nc(Cl)ccc5o4)CC3)cc2)nn1` [Example 131, 3-[4-[4-[4-(5-chlorooxazolo[4,5-b]pyridin-2-yl)piperazine-1-carbonyl]phenyl]triazol-1-yl]-2,2-dimethyl-propanenitrile] yielded an IC50 of 35 nM.

In the case of `CC(C)(F)Cn1cc(-c2ccc(C(=O)N3CCN(c4nc5nc(Cl)ccc5o4)CC3)cc2)nn1` [Example 132, (4-(5-chlorooxazolo[4,5-b]pyridin-2-yl)piperazin-1-yl)(4-(1-(2-fluoro-2-methylpropyl)-1H-1,2,3-triazol-4-yl)phenyl)methanone], the IC50 is reported as 49 nM.

In the case of `Cc1ccc2oc(N3CCN(C(=O)c4ccc(-c5cn(CC(C)(C)F)nn5)cc4)CC3)nc2n1` [Example 133, (4-(1-(2-fluoro-2-methylpropyl)-1H-1,2,3-triazol-4-yl)phenyl)(4-(5-methyloxazolo[4,5-b]pyridin-2-yl)piperazin-1-yl)methanone], the IC50 is reported as 94 nM.

In the case of `CC(C)(CF)n1cc(-c2ccc(C(=O)N3CCN(c4nc5nc(Cl)ccc5o4)CC3)cc2)nn1` [Example 134, (4-(5-chlorooxazolo[4,5-b]pyridin-2-yl)piperazin-1-yl)(4-(1-(1-fluoro-2-methylpropan-2-yl)-1H-1,2,3-triazol-4-yl)phenyl)methanone], the IC50 is reported as 48 nM.

In the case of `Cc1ccc2oc(N3CCN(C(=O)c4ccc(-c5cn(C(C)(C)CF)nn5)cc4)CC3)nc2n1` [Example 135, (4-(1-(1-fluoro-2-methylpropan-2-yl)-1H-1,2,3-triazol-4-yl)phenyl)(4-(5-methyloxazolo[4,5-b]pyridin-2-yl)piperazin-1-yl)methanone], the IC50 is reported as 116 nM.

For `CC(C)(C#N)Cn1ncc(-c2ccc(C(=O)N3CCN(c4nc5nc(Cl)ccc5o4)CC3)cc2)n1` [Example 136, 3-[4-[4-[4-(5-chlorooxazolo[4,5-b]pyridin-2-yl)piperazine-1-carbonyl]phenyl]triazol-2-yl]-2,2-dimethyl-propanenitrile], the IC50 was 34 nM.

Work on `Cc1nc(C(=O)N2CCN(c3nc4nc(Cl)ccc4o3)CC2)cnc1OCC1(C(F)(F)F)CC1` [Example 137, [4-(5-chlorooxazolo[4,5-b]pyridin-2-yl)piperazin-1-yl]-[6-methyl-5-[[1-(trifluoromethyl)cyclopropyl]methoxy]pyrazin-2-yl]methanone] yielded an IC50 of 34 nM.
